According to US20200038416A1, “METHODS OF TREATING CARDIAC CONDUCTION DEFECTS USING AMINOSTEROL COMPOSITIONS” (Enterin, Inc., priority 2018, published 2020):
“Also recorded” adds a separate entry of the source.

How the values were obtained:
[1] = mice, systemic administration; into the duodenum through the biliary tract; cited from earlier work
[2] = prior studies; cited from earlier work
[3] = test system: mice with constipation due to overexpression of human αS; conditions: mouse models of PD, oral administration; cited from earlier work
[4] = Prior clinical trials of intravenous squalamine; type: in vivo, human; conditions: prior studies
Method: Systemic absorption of the aminosterol following oral administration was negligible both in this study and in prior studies involving mice, rats and dogs. […] The topical action would also explain why adverse events were largely confined to the gastrointestinal tract.
In the current clinical trial, squalamine (ENT-01) was administered orally to subjects with PD who have long standing constipation. Although this trial was the first in man oral dosing study of ENT-01, humans have long been exposed to low doses of squalamine (milligram to microgram) in the various commercial dogfish shark liver extracts available as nutraceuticals (e.g., Squalamax).

[5] = Oral bioavailability / systemic absorption estimate versus prior IV pharmacokinetic data; type: in vivo, human; conditions: this study, PD patients
Method: PK data were collected on the 10 patients enrolled in Stage 1 and 10 patients enrolled in Stage 2 to determine the extent of systemic absorption. In Stage 1, PK data were obtained at each visit, pre-medication, at 1, 2, 4, 8 and 24 hours (Table 10). In Stage 2, PK was measured on days 1 and 6 of the randomization period pre-medication, at 1, 2, 4 and 8 hours (Table 11).

[6] = test system: IPANs (intrinsic primary afferent neuron); conditions: perfusion through lumen of isolated bowel segment; cited from earlier work

## CC(C)[C@@H](CC[C@@H](C)[C@H]1CC[C@H]2[C@@H]3[C@H](O)C[C@H]4C[C@@H](NCCCNCCCCN)CC[C@]4(C)[C@H]3CC[C@]12C)OS(=O)(=O)O [squalamine]
[1]
  clearance and excretion: cleared by the liver and excreted as the intact molecule
[2]
  effect of intravenous administration on gastrointestinal motility: not associated with increased gastrointestinal motility
[3]
  gastrointestinal motility: stimulates gastro-intestinal motility; also recorded: reverse gastrointestinal dysmotility
[4]
  systemic blood levels after intravenous versus oral administration: one thousand-fold greater
[5]
  systemic absorption following oral administration: negligible; also recorded: not significantly absorbed
[6]
  effect on IPANs of the ENS: excitation of IPANs
